Values quoted from earlier work, collected in US20230210112A1, “METHOD FOR GROWING PLANTS” (Taminco BV, priority 2020, published 2023).

Experiments:
pests = conditions: in vivo
cauliflower seedlings = conditions: 20 mM BABA
Tomato plants = conditions: treated tomato seedlings

SMILES | Effect on plant growth or development (in words) (pests) | Resistance-inducing activity (in words) (pests) | Reduction in growth of cauliflower seedlings (cauliflower seedlings) [%] | Concentration at which root growth repression was observed (as low as) (Tomato plants) [µM]
N[C@@H](CO)CC(=O)O [(R)-beta-homoserine] | without affecting plant growth or development | strong resistance-inducing activity |  | 
CC(N)CC(=O)O (stereo not drawn) [BABA, beta-aminobutyric acid] |  |  | 14.7 | 500
CC/C=C\C[C@H]1C(=O)CC[C@@H]1CC(=O)O [JA, jasmonic acid] |  |  |  | 250
